Publication PMC6946680, “Modulation of brain cation-Cl^− cotransport via the SPAK kinase inhibitor ZT-1a” (Nature Communications, 2020)
Several values for one entry are separate records, joined by “and”; a condition that tells them apart may be missing. Equal values may be shown once.

How the values were obtained:
[1] = ZT-1a content in plasma and brain of sham and tMCAO mice (LC-MS/MS); type: in vivo, mouse; conditions: for plasma ZT-1a concentration: Fig 6e; for plasma ZT-1a concentration / Brain tissue ZT-1a concentration: individual animals; for Brain tissue ZT-1a concentration: Fig 6f
KCC3 = experiment: Immunoblot of total KCC3 / Actin in HEK-293 cells transfected with FLAG-KCC3; type: cell-based, human; conditions: Fig S4b
[2] = molecular target: panel of 140 recombinant kinases; type: biochemical
Description: (§1) Supplementary Table 2. ZT-1a kinase profiling data6.
(§2) ZT-1a was tested at 10 and 1 µM against a panel of 140 recombinant kinases in an enzymatic
(§3) activity-based assay performed by the International Centre for Kinase Profiling in the MRC
(§4) Protein Phosphorylation and Ubiquitylation Unit. Values represent % residual kinase activity

[3] = tested on: mouse model of ischemic stroke (tMCAO); experiment: Ex vivo T2-weighted MRI and DTI of brains 7 days post tMCAO; type: in vivo
[4] = tested on: mouse model of ischemic stroke (tMCAO); experiment: Neurological deficit score after tMCAO; type: in vivo; conditions: for Neurological score (score): Fig 7c, individual mice #1-#7; for neurological deficit score: ZT-1a 5.0 mg/kg
human fibroblast cells = experiment: Cell volume measurement (calcein-AM) under hyperosmotic stress, human fibroblasts; conditions: hypertonic 515 mOsm; BMT or ZT-1a
IKKb = experiment: Kinase profiling panel; type: biochemical
Description: as §1, §2, §3, §4

DYRK3 = experiment: Kinase profiling panel; type: biochemical
Description: as §1, §2, §3, §4

HER4 = experiment: Kinase profiling panel; type: biochemical
Description: as §1, §2, §3, §4

CHK2 = experiment: Kinase profiling panel; type: biochemical
Description: as §1, §2, §3, §4

CDK9-Cyclin T1 = experiment: Kinase profiling panel; type: biochemical
Description: as §1, §2, §3, §4

YES1 = experiment: Kinase profiling panel; type: biochemical
Description: as §1, §2, §3, §4

MKK2 = experiment: Kinase profiling panel; type: biochemical
Description: as §1, §2, §3, §4

SGK1 = experiment: Kinase profiling panel; type: biochemical
Description: as §1, §2, §3, §4

BRK = experiment: Kinase profiling panel; type: biochemical
Description: as §1, §2, §3, §4

EPH-B3 = experiment: Kinase profiling panel; type: biochemical
Description: as §1, §2, §3, §4

[5] = tested on: pSPAK (pSer373)/pOSR1 (pSer325); experiment: Immunoblot of pSPAK/pOSR1 in ischemic mouse brain membrane fractions; conditions: for SPAK / Na-K pumb / pSer373 / SPAK: Fig 8, individual samples; for pSPAK pOSR1/Na K pump (fold veh-CL): Membrane, single samples
[6] = tested on: KCC3 Thr991Ala/Thr1048Ala; experiment: 86Rb+ uptake assay for KCC3 double mutant in HEK-293 cells; type: cell-based, human; conditions: for 86Rb+ uptake: Fig 3a, T991A/T1048A + 1a (10 µM), replicates
Description: ^86Rb^+ flux assays have been utilized extensively as a reliable measurement of cation chloride cotransporter activity[51]–[54].
Thirty-six hours post transfection, cells were exposed for 30 min to either control isotonic conditions or hypotonic low [Cl^−] conditions (to activate the SPAK/OSR1 pathway), and then treated for an additional 30 min in the same conditions with the indicated ZT-1a concentrations in the presence of 1 mM ouabain and 0.1 mM bumetanide. Ten-minute ^86Rb^+ uptake values were quantified by scintillation counting, normalized per mg protein for each condition, and plotted for both isotonic and hypotonic conditions. ***p < 0.001; **p < 0.01; *p < 0.05; ns—nonsignificant [by one-way ANOVA with post hoc testing (n = 6, error bars represent the mean ± SEM)]. b ^86Rb^+ uptake assays in the presence of ZT-1a measure transport activity of NKCC1. […] Thirty-six hours post transfection, cells were exposed for 30 min to either control isotonic conditions or hypotonic low [Cl^−] conditions (to activate the SPAK/OSR1 pathway), and then treated in the same conditions for an additional 30 min with 10 µM ZT-1a or 0.1 mM bumetanide (Bum) in the presence of 1 mM ouabain (Na^+/K^+-ATPase inhibitor). ^86Rb^+ uptake was allowed to proceed for 10 min and was then quantified by scintillation counting. ^86Rb^+ uptake CPMs were normalized per mg protein and plotted for both isotonic and hypotonic conditions. […] Ten-minute ^86Rb^+ uptake values were quantified by scintillation counting, normalized per mg protein for each condition, and plotted for both isotonic and hypotonic conditions. ***p < 0.001; **p < 0.01; *p < 0.05; ns—nonsignificant [by one-way ANOVA with post hoc testing (n = 6, error bars represent the mean ± SEM)].
This stimulating medium was then removed and replaced with isotonic medium containing inhibitors plus 2 µCi/ml ^86Rb^+. […] Washed cells were lysed in 300 µl of ice-cold lysis buffer and ^86Rb^+ uptake was quantitated by liquid scintillation counting (PerkinElmer).

SPAK pSer373 = experiment: Choroid plexus SPAK/OSR1 immunoblot in rat post-hemorrhagic hydrocephalus (IVH) model; type: in vivo
[7] = 7 days post stroke, ZT-1a 5.0 mg/kg
[8] = rat CPe 48 h post IVH + 1a, replicates

Cc1cc(C(C#N)c2ccc(Cl)cc2)c(Cl)cc1NC(=O)c1cc(Cl)ccc1O (stereo not drawn) [ZT-1a, 5-chloro-N-(5-chloro-4-((4-chlorophenyl)(cyano)methyl)-2-methylphenyl)-2-hydroxybenzamide]
ZT-1a concentration in CL and IL hemispheres of ischemic brains relative to sham brains ([1]; 2 h after 5 mg/kg i.p.): ~ 1.8 fold
plasma ZT-1a levels in ischemic versus non-ischemic sham mice ([1]; 2 h after 5 mg/kg i.p.): indistinguishable
plasma ZT-1a concentration ([1]; Sham mice): 329.00 ng/mL and 282.00 ng/mL and 324.00 ng/mL and 520.00 ng/mL and 751.00 ng/mL and 743.08 ng/mL and 457.88 ng/mL and 359.25 ng/mL and 143.14 ng/mL and 588.55 ng/mL and 379.00 ng/mL
plasma ZT-1a concentration ([1]; tMCAO mice): 1494.00 ng/mL and 655.00 ng/mL and 82.00 ng/mL and 678.79 ng/mL and 587.05 ng/mL and 302.56 ng/mL and 827.38 ng/mL and 531.10 ng/mL and 662.00 ng/mL
Brain tissue ZT-1a concentration ([1]; sham, CL hemisphere): 221.00 ng/gm tissue and 107.00 ng/gm tissue and 97.00 ng/gm tissue and 50.00 ng/gm tissue and 133.00 ng/gm tissue and 120.00 ng/gm tissue and 67.00 ng/gm tissue and 61.00 ng/gm tissue and 77.00 ng/gm tissue and 131.00 ng/gm tissue
Brain tissue ZT-1a concentration ([1]; sham, IL hemisphere): 174.00 ng/gm tissue and 130.00 ng/gm tissue and 100.00 ng/gm tissue and 155.00 ng/gm tissue and 76.00 ng/gm tissue and 115.00 ng/gm tissue and 89.00 ng/gm tissue and 78.00 ng/gm tissue and 59.00 ng/gm tissue and 139.00 ng/gm tissue
Brain tissue ZT-1a concentration ([1]; tMCAO, CL hemisphere): 161.00 ng/gm tissue and 118.00 ng/gm tissue and 139.00 ng/gm tissue and 285.00 ng/gm tissue and 269.00 ng/gm tissue and 132.00 ng/gm tissue and 326.00 ng/gm tissue and 170.00 ng/gm tissue and 163.00 ng/gm tissue and 133.00 ng/gm tissue and 245.00 ng/gm tissue
Brain tissue ZT-1a concentration ([1]; tMCAO, IL hemisphere): 217.00 ng/gm tissue and 131.00 ng/gm tissue and 171.00 ng/gm tissue and 369.00 ng/gm tissue and 215.00 ng/gm tissue and 238.00 ng/gm tissue and 154.00 ng/gm tissue and 150.00 ng/gm tissue and 199.00 ng/gm tissue
penetration across the healthy BBB ([1]; normal naive mice): minimal
KCC3 / Actin (KCC3; ZT-1a 0.3 uM): 2.04 and 1.923 and 2.091 and 1.84
KCC3 / Actin (KCC3; ZT-1a 1 uM): 1.85 and 1.949 and 1.921 and 1.782
KCC3 / Actin (KCC3; ZT-1a 3 uM): 1.87 and 1.905 and 1.972 and 1.73
kinases of the 140 tested with >50% inhibition ([2]; 1 µM ZT-1a): only a single kinase
share of the 140 kinases not inhibited by >70% ([2]; 1 µM ZT-1a vs DMSO control): 98%
EC tract FA values in the IL hemisphere [3, 7]: undiminished
reduction of brain atrophy (% hemisphere shrinkage) [3, 7]: ~ 41%
reduction of stroke-induced lesion volume (T2-weighted MRI) [3, 7]: ~ 40%
EC FA value ([3]; Fig 7d, CL hemisphere, individual brains): 0.3452 and 0.2737 and 0.3976 and 0.3529 and 0.3132 and 0.3022 and 0.3144
EC FA value ([3]; Fig 7d, IL hemisphere, individual brains): 0.3284 and 0.2019 and 0.3515 and 0.3727 and 0.2854 and 0.2283 and 0.2974
% Shrinkage ([3]; Fig 7d, individual brains): 4.31% and 1.96% and 1.98% and 5.61% and 5.20% and 3.63% and 2.52%
Lesion volume (mm3) ([3]; Fig 7d, individual brains): 33.98 mm3 and 34.15 mm3 and 17.99 mm3 and 33.62 mm3 and 29.17 mm3 and 52.2 mm3 and 18.61 mm3
Neurological score (score) ([4]; Day 0): 3 score
Neurological score (score) ([4]; Day 1): 3 score and 2 score (5×) and 1 score
Neurological score (score) ([4]; Day 3): 2 score (6×) and 1 score
Neurological score (score) ([4]; Day 5): 1 score (3×) and 2 score (4×)
Neurological score (score) ([4]; Day 7): 1 score (4×) and 2 score (3×)
neurological deficit score ([4]; day 1 post tMCAO): 2.0 ± 0.2
neurological deficit score ([4]; day 7 post tMCAO): 1.4 ± 0.2
regulatory volume increase (RVI) in human fibroblast cells (human fibroblast cells): absence of RVI
% residual kinase activity (IKKb; 1 µM): 101±0%
% residual kinase activity (IKKb; 10 µM): 78±3%
% residual kinase activity (DYRK3; 1 µM): 113±6%
% residual kinase activity (DYRK3; 10 µM): 56±15%
% residual kinase activity (HER4; 1 µM): 85±8%
% residual kinase activity (HER4; 10 µM): 84±1%
% residual kinase activity (CHK2; 1 µM): 106±1%
% residual kinase activity (CHK2; 10 µM): 68±6%
% residual kinase activity (CDK9-Cyclin T1; 1 µM): 104±0%
% residual kinase activity (CDK9-Cyclin T1; 10 µM): 108±1%
% residual kinase activity (YES1; 1 µM): 109±3%
% residual kinase activity (YES1; 10 µM): 98±7%
% residual kinase activity (MKK2; 1 µM): 126±2%
% residual kinase activity (MKK2; 10 µM): 81±27%
% residual kinase activity (SGK1; 1 µM): 73±14%
% residual kinase activity (SGK1; 10 µM): 58±5%
% residual kinase activity (BRK; 1 µM): 116±12%
% residual kinase activity (BRK; 10 µM): 103±2%
% residual kinase activity (EPH-B3; 1 µM): 88±6%
% residual kinase activity (EPH-B3; 10 µM): 84±6%
SPAK / Na-K pumb ([5]; CL hemisphere): 0.981 and 0.854 and 0.987 and 1.037 and 0.972 and 0.893
pSer373 / SPAK ([5]; CL hemisphere): 1.177 and 1.25 and 1.197 and 1.217 and 1.153 and 1.09
SPAK / Na-K pumb ([5]; IL hemisphere): 0.919 and 0.978 and 0.855 and 0.931 and 0.95 and 0.819
pSer373 / SPAK ([5]; IL hemisphere): 0.773 and 0.739 and 0.598 and 0.674 and 0.62 and 0.668
pSPAK pOSR1/Na K pump (fold veh-CL) ([5]; CL): 1.23 fold veh-CL and 0.84 fold veh-CL and 1.17 fold veh-CL and 1.58 fold veh-CL and 1.64 fold veh-CL
pSPAK pOSR1/Na K pump (fold veh-CL) ([5]; IL): 1.24 fold veh-CL and 0.94 fold veh-CL and 0.88 fold veh-CL and 1.08 fold veh-CL and 0.87 fold veh-CL
reduction of ischemia-induced elevation of pSPAK ([5]; compared with vehicle-control mice): 55–65%
ischemia-induced increase of pSPAK/pOSR1 ([5]; post-stroke ZT-1a 5 mg/kg, 24 h reperfusion): prevented
activity of KCC3 double mutant Thr991Ala/Thr1048Ala ([6]; 86Rb+ flux, 10 µM ZT-1a): failed to increase activity
86Rb+ uptake ([6]; Hypotonic low Cl-): 20886.3 and 22005.7 and 21031.7 and 19121.7 and 18316.2 and 19001.7
86Rb+ uptake ([6]; Isotonic control): 27112.3 and 26091.1 and 31837.7 and 30881.4 and 28673.6 and 29768.2
SPAK / Actin (SPAK pSer373; [8]): 2.39 and 2.21 and 2.2 and 2.51 and 2.16 and 2.37
SPAK pSer373 / Actin (SPAK pSer373; [8]): 0.69 and 0.85 and 1.13 and 0.73 and 0.89 and 1.07
reduction of IVH-induced expression of pSPAK in CPe (SPAK pSer373; rat, ICV ZT-1a, 48 h post IVH, n = 3): 55 ± 3.6%
